In publication PMC3720659, “Integrated Analysis of Drug-Induced Gene Expression Profiles Predicts Novel hERG Inhibitors” (PLoS ONE, 2013):
Read-outs that look alike come from different tables or passages of the source.

What was measured:
[1] = test system: recombinantly expressed hERG channels; conditions: cited from earlier work
hERG channel [2] = molecular target: T1, hERG channel (Homo sapiens, UniProt Q12809)
Source text: (§1) Inhibition of hERG current was experimentally assessed using a previously described protocol [19]. Briefly, Chinese hamster ovary (CHO) cells stably expressing the hERG channel were dislodged from tissue culture flasks and dispensed into PPC plates. Background leak currents were estimated by initiating a 100 ms step to -80 mV from an initial holding potential of -70 mV and subtracted from the subsequent current measurement. For each drug concentration, sequential voltage pulses were applied, each using a 100 ms step to -30 mV from a holding potential of -70 mV, a 2 s conditioning step to +45 mV, and a 2 s test step to -30 mV. Small molecule effects on hERG current density were quantified by measuring the peak tail current prior to compound application and dividing by the amplitude following application of each test concentration. […] Data were fit to a sigmoidal dose response curve using Origin 6.0 (Microcal).

[3] = previous literature; not in the LQT drug lists used; cited from earlier work
hERG channel [4] = molecular target: T1, hERG channel; assay: cell-based
Source text: as §1

hERG current = conditions: cited from earlier work

T1 sequence (Q12809 whole entry): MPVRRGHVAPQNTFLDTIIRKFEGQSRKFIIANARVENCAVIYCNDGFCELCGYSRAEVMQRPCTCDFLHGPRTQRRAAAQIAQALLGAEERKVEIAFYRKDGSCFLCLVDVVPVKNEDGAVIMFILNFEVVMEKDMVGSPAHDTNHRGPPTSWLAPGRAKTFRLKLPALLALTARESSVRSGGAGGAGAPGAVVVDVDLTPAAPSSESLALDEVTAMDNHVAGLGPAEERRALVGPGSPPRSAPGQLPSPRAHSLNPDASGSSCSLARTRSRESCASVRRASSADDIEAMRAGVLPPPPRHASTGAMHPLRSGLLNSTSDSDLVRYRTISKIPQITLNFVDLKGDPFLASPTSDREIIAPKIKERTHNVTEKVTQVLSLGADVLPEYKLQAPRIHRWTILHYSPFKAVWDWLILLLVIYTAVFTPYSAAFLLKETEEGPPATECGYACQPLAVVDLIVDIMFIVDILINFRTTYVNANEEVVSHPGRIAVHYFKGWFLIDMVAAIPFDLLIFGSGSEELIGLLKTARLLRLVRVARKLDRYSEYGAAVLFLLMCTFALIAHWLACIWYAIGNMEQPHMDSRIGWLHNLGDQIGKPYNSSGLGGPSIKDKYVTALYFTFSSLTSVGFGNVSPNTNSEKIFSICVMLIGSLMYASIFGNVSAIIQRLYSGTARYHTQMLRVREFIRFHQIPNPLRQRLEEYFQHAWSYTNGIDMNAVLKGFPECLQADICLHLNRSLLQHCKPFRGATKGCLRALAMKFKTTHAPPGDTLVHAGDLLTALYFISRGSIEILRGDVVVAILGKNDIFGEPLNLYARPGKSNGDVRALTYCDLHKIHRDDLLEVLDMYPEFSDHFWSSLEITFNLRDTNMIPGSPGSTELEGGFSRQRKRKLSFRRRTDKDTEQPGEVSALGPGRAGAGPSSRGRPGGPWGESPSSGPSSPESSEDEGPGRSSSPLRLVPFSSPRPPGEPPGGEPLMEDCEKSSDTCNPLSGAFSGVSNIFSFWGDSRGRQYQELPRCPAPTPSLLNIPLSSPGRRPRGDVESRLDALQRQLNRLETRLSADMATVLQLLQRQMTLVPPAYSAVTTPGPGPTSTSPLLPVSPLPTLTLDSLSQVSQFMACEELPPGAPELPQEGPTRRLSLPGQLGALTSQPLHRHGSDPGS

CCN(CC)CCOc1ccc(C(=C(Cl)c2ccccc2)c2ccccc2)cc1 [Clomiphene]
IC50 ([1]; read-out: IC50 for inhibition of the current of recombinantly expressed hERG channels): 180 nM

CCCCC(CC)CN1CN(CC(CC)CCCC)CC(C)(N)C1 (centres unmarked) [Hexetidine]
Behaviour during hERG electrophysiology recording (hERG channel [2]): appears to disrupt the membrane seal during recording

CC(NCCC(c1ccccc1)c1ccccc1)c1ccccc1 (centres unmarked) [Fendiline, reference compound]
Association with drug-induced LQT [3]: drug-induced LQT | IC50 (hERG channel [4]): 2600 ± 100 nM

OC(c1cc(C(F)(F)F)nc2c(C(F)(F)F)cccc12)C1CCCCN1 (centres unmarked) [Mefloquine, reference compound]
Inhibition of hERG channels recombinantly expressed in cell lines [1]: inhibit | Annotation (hERG Active / Inactive) (hERG current): Inactive | hERG inhibition call in the high-throughput electrophysiology assay (hERG current): inactive

Clc1ccc(C(OCCN2CCCCC2)c2ccccc2)cc1 (centres unmarked) [Cloperastine]
IC50 (hERG channel [4]): 360 ± 50 nM

Clc1ccc(COC(Cn2ccnc2)c2ccc(Cl)cc2Cl)c(Cl)c1 (centres unmarked) [Miconazole, reference compound]
Inhibition of hERG channels recombinantly expressed in cell lines [1]: inhibit | Annotation (hERG Active / Inactive) (hERG current; hERG inhibition annotation of the drug, the Cell Line (HL60, MCF7, PC3) is the cell line of the expression profile, not of the hERG test): Inactive | hERG inhibition call in the high-throughput electrophysiology assay (hERG current; inhibitor means 50% or more decrease of hERG current at 10 µM, acute recording): inactive
